Test [1] has as its target T1, recombinant human ALK5 (TGF-βR1) protein (Homo sapiens, UniProt P36897).
T1 construct: purchased Life Technologies PR9075A
T1 sequence (P36897 34-503): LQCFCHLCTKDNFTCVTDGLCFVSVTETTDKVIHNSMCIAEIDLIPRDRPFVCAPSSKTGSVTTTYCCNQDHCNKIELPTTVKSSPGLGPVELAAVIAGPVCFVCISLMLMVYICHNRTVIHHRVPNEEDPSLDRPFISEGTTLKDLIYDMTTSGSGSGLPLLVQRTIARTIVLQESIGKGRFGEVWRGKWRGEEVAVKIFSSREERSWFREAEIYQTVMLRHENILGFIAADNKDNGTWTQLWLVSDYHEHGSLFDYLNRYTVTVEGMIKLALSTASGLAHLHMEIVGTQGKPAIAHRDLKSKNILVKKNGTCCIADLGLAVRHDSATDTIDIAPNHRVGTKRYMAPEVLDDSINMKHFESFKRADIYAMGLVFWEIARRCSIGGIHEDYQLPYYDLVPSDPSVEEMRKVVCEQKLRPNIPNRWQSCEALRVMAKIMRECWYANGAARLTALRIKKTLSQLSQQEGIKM
Put plainly: Biochemical ALK5 (TGF-βR1) assay to measure pKi (LANCE Ultra ULight kinase assay). The settings on record: apparent pKi from pIC50 by Cheng-Prusoff, read-out: ALK5 pKi (converted). The method in brief:
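Compounds (10 μM to 25 pM) were preincubated 60 min at room temperature with enzyme, then reactions were started with ATP (125 μM stock, 5× final) and run 60 min at 37 °C. EDTA-containing Eu-anti-phospho-Topo IIα (Thr1342) antibody stopped the reaction; TR-FRET read at 665 nm. pIC50 from 4-parameter fit, converted to pKi via Cheng-Prusoff.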
On the technique in general: In TR-FRET formats the signal depends on donor and acceptor labels being close together.

For test [2], the system named is TGF-β-stimulated SMAD3 phosphorylation in BEAS-2B cells. Put plainly: Cellular ALK5 potency assay, inhibition of TGF-β stimulated pSMAD3 formation in BEAS-2B cells. Format: cell-based. The settings on record: Homo sapiens; inhibition of TGF-β stimulated pSMAD3 formation, BEAS-2B cells; read-out: BEAS2B pIC50 (converted). The method, boiled down:
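BEAS-2B human lung epithelial cells, seeded overnight, were pre-treated with compound in HBSS/25 mM HEPES/1% BSA for 1 h at 37 °C, then stimulated with TGF-β (final 10 ng/mL) for 30 min. Lysates were assayed for pSMAD3 by AlphaLISA; pIC50 came from dose-dependent signal change versus TGF-β-stimulated untreated cells.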

A value given as a limit tells only on which side of the number the result lay.

Take `CCOC(=O)c1ccnc2ccc(-c3c[nH]nc3-c3cccc(C)n3)nc12` [Compound 800, ethyl 6-[3-(6-methyl-2-pyridyl)-1H-pyrazol-4-yl]-1,5-naphthyridine-4-carboxylate]: in test [1], the Ki was 0.0398 to 0.316 nM. The IC50 in test [2] is 25.1 to 158 nM.
For `Cc1cccc(-c2[nH]cnc2-c2ccc3nccc(C(=O)OCCN4CCNCC4)c3c2)n1` [Compound 1121, 2-piperazin-1-ylethyl 6-[5-(6-methyl-2-pyridyl)-1H-imidazol-4-yl]quinoline-4-carboxylate], in test [1], the Ki is 0.398 to 3.16 nM. Further, the IC50 in test [2] is 200 to 1260 nM.
As to `Cc1cccc(-c2[nH]cnc2-c2ccc3ncc(-c4cc(C(=O)O[C@H]5CCNC5)ccn4)cc3c2)n1` [Compound 1060, [(3S)-pyrrolidin-3-yl] 2-[6-[5-(6-methyl-2-pyridyl)-1H-imidazol-4-yl]-3-quinolyl]pyridine-4-carboxylate], the Ki in test [1] was 0.0398 to 0.316 nM. The IC50 in test [2] is 25.1 to 158 nM.
In the case of `Cc1cccc(-c2[nH]cnc2-c2ccc3ncc(C(=O)OCC4CNC4)cc3c2)n1` [Compound 700, azetidin-3-ylmethyl 6-[5-(6-methyl-2-pyridyl)-1H-imidazol-4-yl]quinoline-3-carboxylate], the Ki in test [1] is 0.0398 to 0.316 nM. The IC50 in test [2] is 25.1 to 158 nM.
As for `Cc1cccc(-c2[nH]cnc2-c2ccc3ncc(-c4cccc(C(=O)O[C@@H]5CCNC5)n4)cc3c2)n1` [Compound 1126, [(3R)-pyrrolidin-3-yl] 6-[6-[5-(6-methyl-2-pyridyl)-1H-imidazol-4-yl]-3-quinolyl]pyridine-2-carboxylate], the Ki in test [1] is under 0.0316 nM. Also, in test [2], the IC50 was 25.1 to 158 nM.
Turning to `Cc1cccc(-c2[nH]cnc2-c2ccc3ncc(C4=CC[C@H](NC(=O)[C@@H]5CCCN5)CC4)cc3c2)n1` [Compound 418, (2S)—N-[(1R)-4-[6-[5-(6-methyl-2-pyridyl)-1H-imidazol-4-yl]-3-quinolyl]cyclohex-3-en-1-yl]pyrrolidine-2-carboxamide], the Ki in test [1] was 0.0398 to 0.316 nM. In addition, the IC50 in test [2] was 25.1 to 158 nM.
For `CNC1CCN(c2cnc3ccc(-c4c[nH]nc4-c4cccc(C(C)C)n4)nc3c2)CC1` [Compound 364, 1-[6-[3-(6-isopropyl-2-pyridyl)-1H-pyrazol-4-yl]-1,5-naphthyridin-3-yl]-N-methyl-piperidin-4-amine], in that order: 0.0398 to 0.316 nM and 25.1 to 158 nM.
Regarding `CNC(=O)c1ccnc2ccc(-c3c[nH]nc3-c3cccc(C)n3)nc12` [Compound 818, N-methyl-6-[5-(6-methyl-2-pyridyl)-1H-pyrazol-4-yl]-1,5-naphthyridine-4-carboxamide], in test [1], the Ki is 0.0398 to 0.316 nM. In addition, the IC50 in test [2] was 25.1 to 158 nM.
Regarding `Cc1cccc(-c2n[nH]cc2-c2ccc3ncc(N4CCN(CCN(C)C)CC4)cc3n2)n1` [Compound 292, N,N-dimethyl-2-[4-[6-[3-(6-methyl-2-pyridyl)-1H-pyrazol-4-yl]-1,5-naphthyridin-3-yl]piperazin-1-yl]ethanamine], the Ki in test [1] is under 0.0316 nM. Also, the IC50 in test [2] is 25.1 to 158 nM.
On the same counts, the results for `Cc1cccc(-c2n[nH]cc2-c2ccc3ncc(C4=CCNCC4)cc3n2)n1` [Compound 15, 2-[3-(6-methyl-2-pyridyl)-1H-pyrazol-4-yl]-7-(1,2,3,6-tetrahydropyridin-4-yl)-1,5-naphthyridine] are under 0.0316 nM and under 20 nM.
On the same counts, the results for `Cc1cccc(-c2[nH]cnc2-c2ccc3ncc(N4CCCNCC4)cc3n2)n1` [Compound 307, 7-(1,4-diazepan-1-yl)-2-(5-(6-methylpyridin-2-yl)-1H imidazol-4-yl)-1,5-naphthyridine] are 0.0398 to 0.316 nM and 25.1 to 158 nM.
For `Cc1cccc(-c2[nH]cnc2-c2ccc3ncc(NC4CC5(CNC5)C4)cc3c2)n1` [Compound 200, N-(2-azaspiro[3.3]heptan-6-yl)-6-[5-(6-methyl-2-pyridyl)-1H-imidazol-4-yl]quinolin-3-amine], in that order: 0.0398 to 0.316 nM and 200 to 1260 nM.
In the case of `Cc1cccc(-c2n[nH]cc2-c2ccc3ncc(-c4cnn(CCN5CCNCC5)c4)cc3n2)n1` [Compound 178, 2-[3-(6-methyl-2-pyridyl)-1H-pyrazol-4-yl]-7-[1-(2-piperazin-1-ylethyl)pyrazol-4-yl]-1,5-naphthyridine], the Ki in test [1] was under 0.0316 nM. Also, in test [2], the IC50 was 25.1 to 158 nM.
For `Cc1nc(-c2n[nH]cc2-c2ccc3ncc(-c4[nH]nc5c4CNCC5)cc3n2)ccc1F` [Compound 173, 2-[3-(5-fluoro-6-methyl-2-pyridyl)-1H-pyrazol-4-yl]-7-(4,5,6,7-tetrahydro-2H-pyrazolo[4,3-c]pyridin-3-yl)-1,5-naphthyridine], in that order: 0.0398 to 0.316 nM and 200 to 1260 nM.
For `CNCCN(C)C1CCN(c2cnc3ccc(-c4c[nH]nc4-c4cccc(C)n4)nc3c2)CC1` [Compound 18, N,N′-dimethyl-N′-[1-[6-[3-(6-methyl-2-pyridyl)-1H-pyrazol-4-yl]-1,5-naphthyridin-3-yl]-4-piperidyl]ethane-1,2-diamine], the Ki in test [1] was 0.0398 to 0.316 nM. In addition, in test [2], the IC50 was 200 to 1260 nM.
In the case of `Cc1cccc(-c2n[nH]cc2-c2ccc3nccc(-c4cn[nH]c4)c3c2)n1` [Compound 866, 6-[3-(6-methyl-2-pyridyl)-1H-pyrazol-4-yl]-4-(1H-pyrazol-4-yl)quinoline], the Ki in test [1] was under 0.0316 nM. The IC50 in test [2] was 25.1 to 158 nM.
On the same counts, the results for `Cc1nc(-c2nc3ccccn3c2-c2ccc3ncc(-c4nnn5c4CNCC5)cc3n2)ccc1F` [Compound 202, 2-[2-(5-fluoro-6-methyl-2-pyridyl)imidazo[1,2-a]pyridin-3-yl]-7-(4,5,6,7-tetrahydrotriazolo[1,5-a]pyrazin-3-yl)-1,5-naphthyridine] are 0.0398 to 0.316 nM and 200 to 1260 nM.
Regarding `Cc1cccc(-c2[nH]cnc2-c2ccc3ncc(C4=CC(C)(C)NC(C)(C)C4)cc3c2)n1` [Compound 117, 6-[5-(6-methyl-2-pyridyl)-1H-imidazol-4-yl]-3-(2,2,6,6-tetramethyl-1,3-dihydropyridin-4-yl)quinoline], the Ki in test [1] is 0.398 to 3.16 nM. Further, in test [2], the IC50 is 25.1 to 158 nM.
Take `Cc1cccc(-c2n[nH]cc2-c2ccc3ncc(N4CCN[C@H](C)C4)cc3n2)n1` [Compound 249, 7-[(3R)-3-methylpiperazin-1-yl]-2-[3-(6-methyl-2-pyridyl)-1H-pyrazol-4-yl]-1,5-naphthyridine]: in test [1], the Ki was 0.0398 to 0.316 nM. Besides, in test [2], the IC50 is 25.1 to 158 nM.
Take `Cc1cccc(-c2[nH]cnc2-c2ccc3ncc(NCCN4CCN(C(C)C)CC4)cc3n2)n1` [Compound 104, N-(2-(4-isopropylpiperazin-1-yl)ethyl)-6-(5-(6-methylpyridin-2-yl)-1H-imidazol-4-yl)-1,5-naphthyridin-3-amine]: the Ki in test [1] is 0.0398 to 0.316 nM. For the same compound, the IC50 in test [2] is 25.1 to 158 nM.
On to `Cc1cccc(-c2n[nH]cc2-c2ccc3ncc(NC(=O)CN4CCOCC4)cc3n2)n1` [Compound 353, N-[6-[3-(6-methyl-2-pyridyl)-1H-pyrazol-4-yl]-1,5-naphthyridin-3-yl]-2-morpholino-acetamide], for which the Ki in test [1] is 0.0398 to 0.316 nM. Also, the IC50 in test [2] was 25.1 to 158 nM.
On the same counts, the results for `Cc1nc(-c2n[nH]cc2-c2ccc3ncc(-c4cnn(C[C@H]5CCC[C@@H](N)C5)c4)cc3n2)ccc1F` (racemic) [Compound 463, rac-(1R,3S)-3-[[4-[6-[3-(5-fluoro-6-methyl-2-pyridyl)-1H-pyrazol-4-yl]-1,5-naphthyridin-3-yl]pyrazol-1-yl]methyl]cyclohexanamine] are under 0.0316 nM and 25.1 to 158 nM.
For `Cc1cccc(-c2n[nH]cc2-c2ccc3ncc(N4CCNCC4)cc3n2)n1` [Compound 73, 2-[3-(6-methyl-2-pyridyl)-1H-pyrazol-4-yl]-7-piperazin-1-yl-1,5-naphthyridine], in that order: under 0.0316 nM and under 20 nM.
For `Cc1cccc(-c2nc3ccccn3c2-c2ccc3ncc(NCCN4CCN(C(C)C)CC4)cc3n2)n1` [Compound 120, N-(2-(4-isopropylpiperazin-1-yl)ethyl)-6-(2-(6-methylpyridin-2-yl)imidazo[1,2-a]pyridin-3-yl)-1,5-naphthyridin-3-amine], in that order: 0.0398 to 0.316 nM and 25.1 to 158 nM.
`Cc1cccc(-c2[nH]cnc2-c2ccc3ncc(N4CCC5(CCNC5)C4)cc3c2)n1` (stereo not shown) [Compound 387, 3-(2,7-diazaspiro[4.4]nonan-2-yl)-6-[5-(6-methyl-2-pyridyl)-1H-imidazol-4-yl]quinoline]: in test [1], the Ki was under 0.0316 nM. In test [2], the IC50 was 25.1 to 158 nM.
On the same counts, the results for `Cc1cccc(-c2[nH]cnc2-c2ccc3ncc(C4=CC(N)CCC4)cc3c2)n1` (stereo not shown) [Compound 138, 3-[6-[5-(6-methyl-2-pyridyl)-1H-imidazol-4-yl]-3-quinolyl]cyclohex-2-en-1-amine] are 0.0398 to 0.316 nM and 25.1 to 158 nM.

For the origin of these results see patent US11590116B2 (THERAVANCE BIOPHARMA R&D IP, LLC, priority 2019, dated 2023).
